Active and inactive are the calls of the source. No cut-off for these calls is given here.
Columns and labels:
[1] = test system: HeLa; assay: Cytotoxicity against human HeLa cells after 24 hrs by WST-1 assay; type: functional, cell-based
[2] = test system: HL-60; assay: Cytotoxicity against human HL60 cells after 24 hrs by WST-1 assay; type: functional, cell-based; details: HL-60, 24 h
[3] = test system: HeLa; assay: Cytotoxicity against human HeLa cells after 48 hrs by WST-1 assay; type: functional, cell-based
[4] = Chemical stability of the compound in methanol measured at 72 hrs by LC-MS analysis; type: physicochemical; details: read-out: Stability
[5] = test system: HL-60; assay: Cytotoxicity against human HL60 cells after 48 hrs by WST-1 assay; type: functional, cell-based; details: HL-60, 48 h
[6] = Chemical stability of the compound in methanol measured at 24 hrs by LC-MS analysis; type: physicochemical; details: read-out: Stability
[7] = test system: Vero; assay: Cytotoxicity against African green monkey Vero cells after 48 hrs by Alamar Blue assay; type: cell-based; details: Chlorocebus sabaeus
[8] = Chemical stability of the compound in methanol measured immediately post compound addition by LC-MS analysis; type: physicochemical; details: read-out: Stability
[9] = test system: HL-60; assay: Cytotoxicity against human HL60 cells assessed as decrease in cell viability at 50 ug/mL after 24 hrs by trypan blue assay; type: functional, cell-based
[10] = test system: HL-60; assay: Cytotoxicity against human HL60 cells assessed as metabolic activity at 50 ug/mL after 24 hrs by WST-1 assay; type: functional, cell-based
[11] = Chemical stability of the compound in methanol measured at 48 hrs by LC-MS analysis; type: physicochemical; details: read-out: Stability
[12] = test system: Vero; assay: Cytotoxicity against African green monkey Vero cells after 24 hrs by Alamar Blue assay; type: cell-based; details: Chlorocebus sabaeus
[13] = test system: HL-60; assay: Cytotoxicity against human HL60 cells after 72 hrs; type: functional, cell-based; details: HL-60, 72 h
[14] = Drug degradation in methanol assessed as divaricatinic acid methyl ester formation after 72 hrs by LC-MS analysis; type: physicochemical
[15] = Drug degradation in methanol assessed as 2,3,4 trihydroxy-6-propylbenzoic acid methyl ester formation after 72 hrs by LC-MS analysis; type: physicochemical
[16] = test system: HL-60; assay: Cytotoxicity against human HL60 cells assessed as decrease in cell viability at 10 ug/mL measured over 72 hrs by trypan blue assay; type: functional, cell-based
[17] = test system: HL-60; assay: Cytotoxicity against human HL60 cells assessed as metabolic activity at 10 ug/mL measured over 72 hrs by WST-1 assay; type: functional, cell-based

remaining at 72 h [4] [%] | remaining at 24 h [6] [%] | remaining at 0 h [8] [%] | remaining at 48 h [11] [%] | Stability [14] | Stability [15] | SMILES | IC50 [1] [µM] | IC50 [2] [µM] | IC50 [3] [µM] | IC50 [5] [µM] | IC50 [7] [µM] | Activity [9] | Activity [10] | IC50 [12] [µM] | IC50 [13] [µM] | Activity [16] | Activity [17]
99.9 | 99.9 | 99.9 | 99.9 | – | – | CC(=O)C1=C(O)C=C2Oc3c(C(C)=O)c(O)c(C)c(O)c3[C@@]2(C)C1=O [(+)-USNIC ACID] | > 10 | 5.4 | > 10 | 1.7 | > 150 | – | – | > 150 | 48.5 | – | –
89.5 | 88.5 | 94.1 | 89.6 | – | – | COc1cc(C)c2c(c1C=O)Oc1c(C=O)c(C(=O)O)c(O)c(C)c1OC2=O | > 10 | > 10 | > 10 | > 10 | > 150 | Active | inactive | > 150 | – | – | –
99.9 | 99.9 | 99.8 | 99.9 | – | – | CCCc1cc(O)cc(O)c1C(=O)OC | > 10 | > 10 | > 10 | > 10 | > 150 | – | – | > 150 | – | – | –

Further lines, the compound ahead of its results:

SMILES | remaining at 72 h [4] [%] | remaining at 24 h [6] [%] | remaining at 0 h [8] [%] | remaining at 48 h [11] [%] | Stability [14] | Stability [15] | IC50 [1] [µM] | IC50 [2] [µM] | IC50 [3] [µM] | IC50 [5] [µM] | IC50 [7] [µM] | Activity [9] | Activity [10] | IC50 [12] [µM] | IC50 [13] [µM] | Activity [16] | Activity [17]
COc1cc(C)c2c(c1C=O)Oc1c(c(C)c(O)c3c1C(O)OC3=O)OC2=O (centres undefined) [STICTIC ACID] | 91.8 | 90.1 | 89.7 | 91.8 | – | – | > 10 | > 10 | > 10 | > 10 | > 150 | Active | inactive | > 150 | – | – | –
CCCc1cc(OC)cc(O)c1C(=O)Oc1c(O)cc(CCC)c(C(=O)OC)c1O | 22.1 | 63.8 | 99.8 | 35.3 | Unstable | Unstable | > 10 | > 10 | > 10 | 7.6 | > 150 | – | – | > 150 | – | Active | Active
CCCc1cc(O)c(O)c(O)c1C(=O)OC | 94.8 | 95 | 97.8 | 94.6 | – | – | > 10 | > 10 | > 10 | > 10 | > 150 | – | – | > 150 | – | – | –

Source: ChEMBL document CHEMBL3232872, “Cytotoxic constituents from Lobaria scrobiculata and a comparison of two bioassays for their evaluation” (J Nat Prod, 2014)
